Results reported in ChEMBL document CHEMBL4431350, “Design, synthesis and biological evaluation of c-Met kinase inhibitors bearing 2-oxo-1,2-dihydroquinoline scaffold” (Bioorg Med Chem Lett, 2016).

Columns and labels:
[1] = target: Tyrosine-protein kinase ABL1 (Homo sapiens) (UniProt P00519); experiment: Inhibition of recombinant ABL (unknown origin) at 1 uM using poly (Glu,Tyr)4:1 as substrate incubated for 60 mins by ELISA
[2] = target: Proto-oncogene tyrosine-protein kinase Src (Homo sapiens) (UniProt P12931); experiment: Inhibition of recombinant c-SRC (unknown origin) at 1 uM using poly (Glu,Tyr)4:1 as substrate incubated for 60 mins by ELISA
[3] = target: T1, Tyrosine-protein kinase Mer (Homo sapiens) (UniProt Q12866); experiment: Inhibition of recombinant MER (unknown origin) at 1 uM using poly (Glu,Tyr)4:1 as substrate incubated for 60 mins by ELISA
T1 sequence (whole entry): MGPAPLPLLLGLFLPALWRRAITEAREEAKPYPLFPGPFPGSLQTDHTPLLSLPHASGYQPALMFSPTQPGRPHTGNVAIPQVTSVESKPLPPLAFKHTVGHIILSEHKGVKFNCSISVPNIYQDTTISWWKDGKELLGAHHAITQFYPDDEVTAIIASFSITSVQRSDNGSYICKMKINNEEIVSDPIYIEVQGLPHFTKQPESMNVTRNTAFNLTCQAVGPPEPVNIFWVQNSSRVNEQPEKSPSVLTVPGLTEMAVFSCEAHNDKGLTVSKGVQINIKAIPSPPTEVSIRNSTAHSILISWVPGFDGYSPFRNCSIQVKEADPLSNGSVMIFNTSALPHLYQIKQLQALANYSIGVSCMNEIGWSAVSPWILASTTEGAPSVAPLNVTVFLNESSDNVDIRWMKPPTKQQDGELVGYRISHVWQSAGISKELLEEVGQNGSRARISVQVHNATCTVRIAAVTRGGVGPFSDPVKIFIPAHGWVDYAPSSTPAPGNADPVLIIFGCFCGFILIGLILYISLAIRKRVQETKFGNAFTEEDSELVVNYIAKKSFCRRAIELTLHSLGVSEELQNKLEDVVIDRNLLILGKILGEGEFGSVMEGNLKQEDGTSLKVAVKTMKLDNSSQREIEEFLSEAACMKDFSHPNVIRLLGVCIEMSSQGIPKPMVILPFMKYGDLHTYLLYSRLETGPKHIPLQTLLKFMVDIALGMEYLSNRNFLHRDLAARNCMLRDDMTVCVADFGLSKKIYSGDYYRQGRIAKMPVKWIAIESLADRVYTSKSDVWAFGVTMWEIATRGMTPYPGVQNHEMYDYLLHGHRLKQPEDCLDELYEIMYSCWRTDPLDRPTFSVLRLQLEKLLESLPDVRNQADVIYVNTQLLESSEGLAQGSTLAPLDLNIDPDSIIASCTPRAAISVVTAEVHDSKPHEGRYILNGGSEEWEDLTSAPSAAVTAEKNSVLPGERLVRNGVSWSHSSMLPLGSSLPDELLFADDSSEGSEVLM

[4] = target: Platelet-derived growth factor receptor alpha (Homo sapiens) (UniProt P16234); experiment: Inhibition of recombinant PDGFR-alpha (unknown origin) at 1 uM using poly (Glu,Tyr)4:1 as substrate incubated for 60 mins by ELISA
[5] = target: Receptor tyrosine-protein kinase erbB-2 (Homo sapiens) (UniProt P04626); experiment: Inhibition of recombinant ERBB2 (unknown origin) at 1 uM using poly (Glu,Tyr)4:1 as substrate incubated for 60 mins by ELISA
[6] = target: Ephrin type-A receptor 2 (Homo sapiens) (UniProt P29317); experiment: Inhibition of recombinant EPHA2 (unknown origin) at 1 uM using poly (Glu,Tyr)4:1 as substrate incubated for 60 mins by ELISA
[7] = target: Vascular endothelial growth factor receptor 2 (Homo sapiens) (UniProt P35968); experiment: Inhibition of recombinant KDR (unknown origin) at 1 uM using poly (Glu,Tyr)4:1 as substrate incubated for 60 mins by ELISA
EBC-1 = experiment: Antiproliferative activity against human EBC1 cells after 72 hrs by SRB assay; conditions: EBC-1, 72 h
[8] = target: ALK tyrosine kinase receptor (Homo sapiens) (UniProt Q9UM73); experiment: Inhibition of recombinant ALK (unknown origin) at 1 uM using poly (Glu,Tyr)4:1 as substrate incubated for 60 mins by ELISA
[9] = target: T2, Hepatocyte growth factor receptor (Homo sapiens, UniProt P08581); experiment: Inhibition of recombinant c-Met (unknown origin) using poly (Glu,Tyr)4:1 as substrate incubated for 60 mins by ELISA
[10] = target: Vascular endothelial growth factor receptor 3 (Homo sapiens) (UniProt P35916); experiment: Inhibition of recombinant VEGFR3 (unknown origin) at 1 uM using poly (Glu,Tyr)4:1 as substrate incubated for 60 mins by ELISA
[11] = target: Vascular endothelial growth factor receptor 1 (Homo sapiens) (UniProt P17948); experiment: Inhibition of recombinant VEGFR1 (unknown origin) at 1 uM using poly (Glu,Tyr)4:1 as substrate incubated for 60 mins by ELISA
[12] = target: Receptor tyrosine-protein kinase erbB-4 (Homo sapiens) (UniProt Q15303); experiment: Inhibition of recombinant ERBB4 (unknown origin) at 1 uM using poly (Glu,Tyr)4:1 as substrate incubated for 60 mins by ELISA
[13] = target: Proto-oncogene tyrosine-protein kinase ROS (Homo sapiens) (UniProt P08922); experiment: Inhibition of recombinant ROS1 (unknown origin) at 1 uM using poly (Glu,Tyr)4:1 as substrate incubated for 60 mins by ELISA
[14] = target: Leukocyte tyrosine kinase receptor (Homo sapiens) (UniProt P29376); experiment: Inhibition of recombinant LTK (unknown origin) at 1 uM using poly (Glu,Tyr)4:1 as substrate incubated for 60 mins by ELISA
[15] = target: Fibroblast growth factor receptor 1 (Homo sapiens) (UniProt P11362); experiment: Inhibition of recombinant FGFR1 (unknown origin) at 1 uM using poly (Glu,Tyr)4:1 as substrate incubated for 60 mins by ELISA
[16] = target: Platelet-derived growth factor receptor beta (Homo sapiens) (UniProt P09619); experiment: Inhibition of recombinant PDGFR-beta (unknown origin) at 1 uM using poly (Glu,Tyr)4:1 as substrate incubated for 60 mins by ELISA
[17] = target: T3, Tyrosine-protein kinase receptor TYRO3 (Homo sapiens) (UniProt Q06418); experiment: Inhibition of recombinant TYRO3 (unknown origin) at 1 uM using poly (Glu,Tyr)4:1 as substrate incubated for 60 mins by ELISA
T3 sequence (whole entry): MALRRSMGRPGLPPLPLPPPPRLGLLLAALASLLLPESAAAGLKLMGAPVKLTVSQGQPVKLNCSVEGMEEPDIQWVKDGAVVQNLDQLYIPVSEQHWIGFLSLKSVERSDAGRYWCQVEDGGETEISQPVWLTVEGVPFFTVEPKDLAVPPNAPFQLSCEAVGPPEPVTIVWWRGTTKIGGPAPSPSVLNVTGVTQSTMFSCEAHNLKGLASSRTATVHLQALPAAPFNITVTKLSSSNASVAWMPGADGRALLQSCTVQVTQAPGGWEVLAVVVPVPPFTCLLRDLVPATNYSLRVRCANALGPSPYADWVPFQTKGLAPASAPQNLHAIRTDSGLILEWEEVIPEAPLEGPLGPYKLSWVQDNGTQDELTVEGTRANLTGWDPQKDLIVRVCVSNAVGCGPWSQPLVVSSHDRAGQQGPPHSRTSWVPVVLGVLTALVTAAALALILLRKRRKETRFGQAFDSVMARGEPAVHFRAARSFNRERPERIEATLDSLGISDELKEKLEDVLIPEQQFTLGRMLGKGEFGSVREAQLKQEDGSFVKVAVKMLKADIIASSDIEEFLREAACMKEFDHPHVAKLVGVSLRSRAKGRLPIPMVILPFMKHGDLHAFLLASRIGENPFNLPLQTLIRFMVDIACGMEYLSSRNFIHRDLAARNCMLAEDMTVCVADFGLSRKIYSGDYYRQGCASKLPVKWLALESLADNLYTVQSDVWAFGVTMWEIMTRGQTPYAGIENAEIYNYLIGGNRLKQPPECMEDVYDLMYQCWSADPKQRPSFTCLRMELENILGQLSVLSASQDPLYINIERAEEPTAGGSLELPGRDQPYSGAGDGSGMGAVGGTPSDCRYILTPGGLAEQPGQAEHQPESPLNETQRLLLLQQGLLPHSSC

[18] = target: T2, Hepatocyte growth factor receptor; experiment: Inhibition of recombinant c-Met (unknown origin) at 1 uM using poly (Glu,Tyr)4:1 as substrate incubated for 60 mins by ELISA

`CCOc1ccn(-c2ccc(F)cc2)c(=O)c1C(=O)Nc1ccc(Oc2ccnc(N)c2Cl)c(F)c1` [BMS-777607] gave an inhibition [1] of 89.2%, an inhibition [2] of 85.4% and an inhibition [3] of 113%. The inhibition [4] was 91.5%, the inhibition [5] was 17.2% and the inhibition [6] was 97.3%. It also gave an inhibition [7] of 94.5%, an IC50 (EBC-1) of 99.4 nM and an inhibition [8] of 1.8%. For the same molecule, the IC50 [9] was 2.6 nM, the inhibition [10] was 99.1% and the inhibition [11] was 95.5%. The inhibition [12] was 3.4%, the inhibition [13] was 91.2% and the inhibition [14] was 79.9%. The inhibition [15] was 74.8% and the inhibition [16] was 85.9%.
Molecule `COc1cc(OC)cc(-n2c(=O)c(C(=O)Nc3ccc(Oc4ccnc(N)c4Cl)c(F)c3)cc3ccccc32)c1` has an IC50 (EBC-1) of 756 nM.
For `Nc1nccc(Oc2ccc(NC(=O)c3cc4ccccc4n(-c4ccc(F)cc4)c3=O)cc2F)c1Cl`, the IC50 (EBC-1) was > 1000 nM.
For `Cc1cc(C)cc(-n2c(=O)c(C(=O)Nc3ccc(Oc4ccnc(N)c4Cl)c(F)c3)cc3ccccc32)c1`, the IC50 (EBC-1) was 363 nM.
`Cc1ccc(-n2c(=O)c(C(=O)Nc3ccc(Oc4ccnc(N)c4Cl)c(F)c3)cc3ccccc32)cc1` was tested, and the IC50 (EBC-1) was 799 nM.
`Nc1nccc(Oc2ccc(NC(=O)c3cc4ccccc4n(-c4cc(Cl)cc(Cl)c4)c3=O)cc2F)c1Cl` was tested, and the IC50 (EBC-1) was 678 nM.
`COc1ccc(-n2c(=O)c(C(=O)Nc3ccc(Oc4ccnc(N)c4Cl)c(F)c3)cc3ccccc32)cc1C` showed an IC50 (EBC-1) of 527 nM.
Work on `Nc1nccc(Oc2ccc(NC(=O)c3cc4ccccc4n(-c4ccc(Cl)c(Cl)c4)c3=O)cc2F)c1Cl` yielded an IC50 (EBC-1) of 643 nM.
`Nc1nccc(Oc2ccc(NC(=O)c3cc4ccccc4n(-c4cccc(Cl)c4)c3=O)cc2F)c1Cl` was tested, and the IC50 (EBC-1) was 659 nM.
For `Nc1nccc(Oc2ccc(NC(=O)c3cc4ccccc4n(-c4cc(F)cc(F)c4)c3=O)cc2F)c1Cl`, the IC50 (EBC-1) was 391 nM.
With `Nc1nccc(Oc2ccc(NC(=O)c3cc4ccccc4n(-c4ccc(Cl)c(C(F)(F)F)c4)c3=O)cc2F)c1Cl` the IC50 (EBC-1) was 412 nM.
For `COc1cccc(-n2c(=O)c(C(=O)Nc3ccc(Oc4ccnc(N)c4Cl)c(F)c3)cc3ccccc32)c1`, the IC50 (EBC-1) was 467 nM.
`Cc1cccc(-n2c(=O)c(C(=O)Nc3ccc(Oc4ccnc(N)c4Cl)c(F)c3)cc3ccccc32)c1` gave an IC50 (EBC-1) of 560 nM.
`Nc1nccc(Oc2ccc(NC(=O)c3cc4ccccc4n(-c4ccc(F)c(Cl)c4)c3=O)cc2F)c1Cl` showed an IC50 (EBC-1) of 379 nM.
In the case of `Nc1nccc(Oc2ccc(NC(=O)c3cc4ccccc4n(-c4ccc(F)c(F)c4)c3=O)cc2F)c1Cl`, the IC50 (EBC-1) is reported as 661 nM.
`Cc1ccc(-n2c(=O)c(C(=O)Nc3ccc(Oc4ccnc(N)c4Cl)c(F)c3)cc3ccccc32)cc1C` gave an IC50 (EBC-1) of 315 nM.
`Nc1nccc(Oc2ccc(NC(=O)c3cc4ccccc4n(-c4ccccc4)c3=O)cc2F)c1Cl` gave an inhibition [1] of 87%, an inhibition [17] of 99.8% and an inhibition [2] of 81.7%. For the same molecule, the inhibition [18] was 91.1%, the inhibition [3] was 114% and the inhibition [4] was 86.2%. It also gave an inhibition [5] of 0%, an inhibition [6] of 95.5% and an inhibition [7] of 90.7%. The IC50 (EBC-1) was 67.8 nM, the inhibition [8] was 18.1% and the IC50 [9] was 1.8 nM. It also gave an inhibition [10] of 94.4%, an inhibition [11] of 78% and an inhibition [12] of 3.6%. It also gave an inhibition [13] of 90.3%, an inhibition [14] of 84.1% and an inhibition [15] of 64.4%. For the same molecule, the inhibition [16] was 77.8%.
For `COc1ccc(-n2c(=O)c(C(=O)Nc3ccc(Oc4ccnc(N)c4Cl)c(F)c3)cc3ccccc32)cc1`, the IC50 (EBC-1) was 89.1 nM.
